Data from patent US6486185B1, “3-heteroarylidene-2-indolinone protein kinase inhibitors” (Sugen, Inc., priority 1997, dated 2002).

Key:
EGFR = target: T1, EGFR (Homo sapiens, UniProt P00533); assay: EGF receptor ELISA in cells engineered to express human EGF-R; type: cell-based; settings: 50% inhibition of PTK activity over control
T1 construct: expressed in transfected cells; host or cells: NIH 3T3/C7
Procedure: (§1) The cellular/catalytic assays described herein are performed in an ELISA format. The general procedure is a follows: a compound is introduced to cells expressing the test kinase, either naturally or recombinantly, for some period of time after which, if the test kinase is a receptor, a ligand known to activate the receptor's activity is added. The cells are lysed and the lysate is transferred to the wells of an ELISA plate previously coated with a specific antibody recognizing the substrate of the enzymatic phosphorylation reaction. Non-substrate components of the cell lysate are washed away and the amount of phosphorylation on the substrate is detected with an antibody specifically recognizing phosphotyrosine compared with control cells that were not contacted with a test compound.
EGF Receptor kinase activity in cells genetically engineered to express human EGF-R can be measured as described below:
The following materials and reagents are used
a. EGF Ligand: stock concentration=16.5 μM; EGF 201, TOYOBO, Co., Ltd. Japan.
b. 05-101 (UBI) (a monoclonal antibody recognizing an EGFR extracellular domain).
c. Anti-phosphotyosine antibody (anti-Ptyr) (polyclonal).
d. Detection antibody: Goat anti-rabbit lgG horse radish peroxidase conjugate, TAGO, Inc., Burlingame, Calif.
Keep solution in dark at 4 C until used.
The following protocol is used:
1. Coat ELISA plates (Corning, 96 well, Cat. #25805-96) with 05-101 antibody at 0.5 μg per well in PBS, 150 μL final volume/well, and store overnight at 4° C. Coated plates are good for up to 10 days when stored at 4° C.
2. On day of use, remove coating buffer and replace with blocking buffer (5% Carnation Instant NonFat Dry Milk in PBS). Incubate the plate, shaking, at room temperature (about 23° C. to 25° C.) for 30 minutes. Just prior to use, remove blocking buffer and wash plate 4 times with TBST buffer.
1. NIH 3T3/C7 cell line (Honegger, et al., Cell 51:199-209, 1987) can be use for this assay.
2. Choose dishes having 80-90% confluence for the experiment. Trypsinize cells and stop reaction by adding 10% CS DMEM medium. Suspend cells in DMEM medium (10% CS DMEM medium) and centrifuge once at 1000 rpm at room temperature for 5 minutes.
3. Resuspend cells in seeding medium (DMEM, 0.5% bovine serum), and count the cells using trypan blue. Viability above 90% is acceptable. Seed cells in DMEM medium (0.5% bovine serum) at a density of 10,000 cells per well, 100 μL per well, in a 96 well microtiter plate. Incubate seeded cells in 5% CO2 at 37° C. for about 40 hours.
1. Check seeded cells for contamination using an inverted microscope. Dilute drug stock (10 mg/mL in DMSO) 1:10 in DMEM medium, then transfer 5 μL to a test well for a final drug dilution of 1:200 and a final DMSO concentration of 1%. Control wells receive DMSO alone. Incubate in 5% CO2 at 37° C. for one hour.
2. Prepare EGF ligand: dilute stock EGF in DMEM so that upon transfer of 10 μL dilute EGF (1:12 dilution), 25 nM final concentration is attained.
3. Prepare fresh 10 mL HNTG* sufficient for 100 μL per well wherein HNTG* comprises: HNTG stock (2.0 mL), milli-Q H2O (7.3 mL), EDTA, 100 mM, pH 7.0 (0.5 mL), Na3VO4 0.5 M (0.1 mL) and Na4(P2O7), 0.2 M (0.1 mL).
5. After two hours incubation with drug, add prepared EGF ligand to cells, 10 μL per well, to yield a final concentration of 25 nM. Control wells receive DMEM alone. Incubate, shaking, at room temperature, for 5 minutes.
6. Remove drug, EGF, and DMEM. Wash cells twice with PBS. Transfer HNTG* to cells, 100 μL per well. Place on ice for 5 minutes. Meanwhile, remove blocking buffer from other ELISA plate and wash with TBST as described above.
7. With a pipette tip securely fitted to a micropipettor, scrape cells from plate and homogenize cell material by repeatedly aspirating and dispensing the HNTG* lysis buffer. Transfer lysate to a coated, blocked, and washed ELISA plate. Incubate shaking at room temperature for one hour.
8. Remove lysate and wash 4 times with TBST. […]

IGF-1R = target: T2, IGF-1R (Homo sapiens, UniProt P08069); assay: IGF-I receptor ELISA in 3T3/IGF-1R cells; type: cell-based; settings: 50% inhibition of PTK activity over control
T2 construct: expressed in transfected cells; host or cells: NIH3T3 (3T3/IGF-1R)
Procedure: as §1
The following protocol may be used to measure phosphotyrosine level on IGF-I receptor, which indicates IGF-I receptor tyrosine kinase activity.
The following materials and reagents are used:
a. The cell line used in this assay is 3T3/IGF-1R, a cell line genetically engineered to overexpresses IGF-1 receptor.
b. NIH3T3/IGF-1R is grown in an incubator with 5% CO2 at 37° C. The growth media is DMEM+10% FBS (heat inactivated)+2 mM L-glutamine.
c. Affinity purified anti-IGF-1R antibody 17-69.
e. Blocking Buffer: TBST plus 5% Milk (Carnation Instant Non-Fat Dry Milk).
Stock solution of TBS (10×) is prepared, and Triton X-100 is added to the buffer during dilution.
Stock solution (5×) is prepared and kept at 4° C.
h. EDTA/HCl: 0.5 M pH 7.0 (NaOH) as 100×stock.
i. Na3VO4: 0.5 M as 100×stock and aliquots are kept in −80° C.
k. Insulin-like growth factor-1 from Promega (Cat# G5111).
l. Rabbit polyclonal anti-phosphotyrosine antiserum.
m. Goat anti-rabbit IgG, POD conjugate (detection antibody), Tago (Cat. No. 4520, Lot No. 1802): Tago, Inc., Burlingame, Calif.
n. ABTS (2,2′-azinobis(3-ethylbenzthiazolinesulfonic acid)) solution:
ABTS solution should be kept in dark and 4° C. The solution should be discarded when it turns green.
o. Hydrogen Peroxide: 30% solution is kept in the dark and at 4° C.
All the following steps are conducted at room temperature unless it is specifically indicated. All ELISA plate washings are performed by rinsing the plate with tap water three times, followed by one TBST rinse. Pat plate dry with paper towels.
1. The cells, grown in tissue culture dish (Corning 25020-100) to 80-90% confluence, are harvested with Trypsin-EDTA (0.25%, 0.5 mL/D-100, GIBCO).
2. Resuspend the cells in fresh DMEM+10% FBS+2 mM L-Glutamine, and transfer to 96-well tissue culture plate (Corning, 25806-96) at 20,000 cells/well (100 μL/well). Incubate for 1 day then replace medium to serum-free medium (90/μL) and incubate in 5% CO2 and 37° C. overnight.
B. ELISA Plate Coating and Blocking:
1. Coat the ELISA plate (Corning 25805-96) with Anti-IGF-1R Antibody at 0.5 μg/well in 100 μL PBS at least 2 hours.
2. Remove the coating solution, and replace with 100 μL Blocking Buffer, and shake for 30 minutes. Remove the blocking buffer and wash the plate just before adding lysate.
1. The drugs are tested in serum-free condition.
2. Dilute drug stock (in 100% DMSO) 1:10 with DMEM in 96-well poly-propylene plate, and transfer 10 μL/well of this solution to the cells to achieve final drug dilution 1:100, and final DMSO concentration of 1.0%. Incubate the cells in 5% CO2 at 37° C. for 2 hours.
3. Prepare fresh cell lysis buffer (HNTG*)
4. After drug incubation for two hours, transfer 10 μL/well of 200 nM IGF-1 Ligand in PBS to the cells (Final Conc.=20 nM), and incubate at 5% CO2 at 37° C. for 10 minutes.
5. Remove media and add 100 μL/well HNTG* and shake for 10 minutes. Look at cells under microscope to see if they are adequately lysed.
6. Use a 12-channel pipette to scrape the cells from the plate, and homogenize the lysate.by repeated aspiration and dispensing. Transfer all the lysate to the antibody coated ELISA plate, and shake for 1 hour.
7. […]

T2 sequence (P08069 31-1367, species assumed): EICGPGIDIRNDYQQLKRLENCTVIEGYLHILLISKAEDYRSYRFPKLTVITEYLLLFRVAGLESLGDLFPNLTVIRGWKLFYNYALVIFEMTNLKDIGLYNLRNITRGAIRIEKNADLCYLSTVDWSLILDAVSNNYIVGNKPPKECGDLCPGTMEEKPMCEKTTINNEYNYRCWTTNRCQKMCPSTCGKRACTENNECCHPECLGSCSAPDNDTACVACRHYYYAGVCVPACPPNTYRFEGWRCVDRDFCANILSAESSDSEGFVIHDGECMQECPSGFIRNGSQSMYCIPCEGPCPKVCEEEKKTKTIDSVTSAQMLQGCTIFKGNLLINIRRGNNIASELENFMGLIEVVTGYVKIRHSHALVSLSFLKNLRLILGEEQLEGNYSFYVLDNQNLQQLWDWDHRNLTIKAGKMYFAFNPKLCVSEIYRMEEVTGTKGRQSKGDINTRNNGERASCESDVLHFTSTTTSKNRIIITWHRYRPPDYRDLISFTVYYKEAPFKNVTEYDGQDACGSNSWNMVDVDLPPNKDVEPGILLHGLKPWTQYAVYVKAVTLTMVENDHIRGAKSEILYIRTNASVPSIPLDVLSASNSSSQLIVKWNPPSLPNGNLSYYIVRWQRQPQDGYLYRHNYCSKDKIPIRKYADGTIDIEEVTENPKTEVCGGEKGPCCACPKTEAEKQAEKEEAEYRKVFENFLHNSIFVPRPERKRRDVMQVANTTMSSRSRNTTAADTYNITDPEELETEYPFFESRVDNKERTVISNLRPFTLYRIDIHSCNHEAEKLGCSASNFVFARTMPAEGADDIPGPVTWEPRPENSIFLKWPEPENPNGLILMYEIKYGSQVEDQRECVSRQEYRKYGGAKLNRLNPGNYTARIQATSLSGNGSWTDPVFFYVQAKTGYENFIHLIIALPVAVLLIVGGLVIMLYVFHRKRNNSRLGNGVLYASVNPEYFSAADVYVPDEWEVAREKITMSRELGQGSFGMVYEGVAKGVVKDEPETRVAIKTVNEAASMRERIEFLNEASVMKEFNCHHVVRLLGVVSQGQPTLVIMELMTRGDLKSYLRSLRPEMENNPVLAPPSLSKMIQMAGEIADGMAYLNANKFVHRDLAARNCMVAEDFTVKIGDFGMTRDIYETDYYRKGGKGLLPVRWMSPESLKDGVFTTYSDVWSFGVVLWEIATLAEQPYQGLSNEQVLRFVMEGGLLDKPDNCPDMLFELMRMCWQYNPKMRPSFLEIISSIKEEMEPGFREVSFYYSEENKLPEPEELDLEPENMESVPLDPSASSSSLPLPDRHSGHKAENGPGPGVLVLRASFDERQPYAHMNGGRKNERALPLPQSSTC
T1 sequence (P00533 25-1210): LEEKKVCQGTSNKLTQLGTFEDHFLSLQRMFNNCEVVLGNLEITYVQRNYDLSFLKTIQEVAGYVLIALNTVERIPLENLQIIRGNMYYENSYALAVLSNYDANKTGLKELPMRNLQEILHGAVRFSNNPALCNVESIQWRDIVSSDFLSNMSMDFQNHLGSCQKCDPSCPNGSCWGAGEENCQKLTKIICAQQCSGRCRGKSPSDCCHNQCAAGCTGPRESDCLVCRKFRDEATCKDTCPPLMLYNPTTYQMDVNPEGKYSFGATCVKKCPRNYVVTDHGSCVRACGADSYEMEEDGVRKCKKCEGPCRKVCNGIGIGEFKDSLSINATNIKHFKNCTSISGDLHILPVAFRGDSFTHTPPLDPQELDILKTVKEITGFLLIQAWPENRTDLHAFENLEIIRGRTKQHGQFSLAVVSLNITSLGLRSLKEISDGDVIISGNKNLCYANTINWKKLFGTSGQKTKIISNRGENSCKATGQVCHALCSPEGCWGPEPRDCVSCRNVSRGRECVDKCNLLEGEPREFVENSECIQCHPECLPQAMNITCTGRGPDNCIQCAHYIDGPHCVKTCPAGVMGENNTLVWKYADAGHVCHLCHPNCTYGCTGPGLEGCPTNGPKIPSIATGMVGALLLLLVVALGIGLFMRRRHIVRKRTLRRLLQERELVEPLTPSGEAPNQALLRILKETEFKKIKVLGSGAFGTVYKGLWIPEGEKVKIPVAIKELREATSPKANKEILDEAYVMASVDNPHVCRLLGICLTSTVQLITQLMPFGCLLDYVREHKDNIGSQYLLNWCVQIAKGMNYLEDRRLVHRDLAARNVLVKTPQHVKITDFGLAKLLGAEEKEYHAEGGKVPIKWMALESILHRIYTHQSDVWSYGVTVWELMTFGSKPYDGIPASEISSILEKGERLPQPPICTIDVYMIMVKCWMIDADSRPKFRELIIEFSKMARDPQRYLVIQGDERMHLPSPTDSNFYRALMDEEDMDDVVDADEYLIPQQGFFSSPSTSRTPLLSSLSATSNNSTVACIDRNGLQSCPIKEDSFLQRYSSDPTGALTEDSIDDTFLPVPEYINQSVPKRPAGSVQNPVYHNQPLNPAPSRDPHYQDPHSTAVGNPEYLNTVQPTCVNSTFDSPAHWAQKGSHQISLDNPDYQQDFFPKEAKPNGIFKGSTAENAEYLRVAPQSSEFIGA

| IC50 (EGFR) [µM] | IC50 (IGF-1R) [µM] | SMILES |
| --- | --- | --- |
| > 100 | > 100 | CCOC(=O)c1c(C)[nH]c(C=C2C(=O)Nc3ccccc32)c1C [3-(2,4-dimethyl-3-ethoxycarbonylpyrrol-5-methylidenyl)-2-indolinone] |
| > 100 | > 100 | CCc1c(C=C2C(=O)Nc3ccccc32)[nH]c(C(=O)O)c1C [3-(2-carboxy-4-ethyl-3-methylpyrrol-5-methylidenyl)-2-indolinone] |
